According to patent US11006626B2, “Compounds for protection of cells” (Sulfateq B.V., priority 2012, dated 2021):

Columns and labels:
PRP platelets = PRP platelets stored with Sul 136, aggregation after stimulation with ADP; format: cell-based; parameters: key to aggregation of the platelets after stimulation with ADP: +means that the cells show aggregation and can thus be activated upon stimulation; −means no aggregation upon stimulation
Procedure: […] • The color and coagulation properties were visually analysed. • The thrombocyte cells that survived were counted and it was evaluated whether the thrombocytes were aggregated. • It was evaluated if the thrombocytes still were able to function after stimulation by the addition of ADP or under influence of collagen in a 96 well plate. • The adhesion was evaluated, meaning the ability of the platelets to bind collagen in a 6 well plate preincubated with collagen. • Via an ELISA assay, it was evaluated whether thromboxane was secreted from the platelets. Thromboxane facilitates aggregation and is produced by activated blood platelets.
(+means that the cells show aggregation and can thus be activated upon stimulation, −means no aggregation upon stimulation)

apherese blood platelets = experiment: Apheresis platelets stored with Sul 136, platelet aggregation (Platelet Aggregation Profiler PAP 8); format: cell-based; settings: for Platelet aggregation ADP (%) / Platelet aggregation Collagen (%): stored at 4° C. with Sul 136
Procedure: 300 μM suspension of Sul 136 is added with a procedure, which keeps the bag content sterile and the Sul 136 is kept in suspension by frequent whirling and stored at 37° C. before it is added to the freshly harvested platelets. The Sul 136 suspension is added to three platelet bags directly from the bag. After addition, the content of the platelet bag is gently mixed. After 2 hours the first sample is drawn with a seal-docked sample bag. The sample bag is disconnected by welding and from this sample bag the samples are taken for hematology analyzing, aggregometer tests and the flow-cytometry tests. Swirling in the bag is reported by experience of the laboratory worker in the standard format. Platelets without Sul 136 put on a flatbed shaker and stored at room temperature were used as control. Another control is stored at 4° C. Platelet samples in which Sul 136 is added, are stored without shaking in a refrigerator at 4° C.
Platelet aggregation was measured according to Platelet Aggregation Profiler PAP 8 (Mölab) using all reagents from Mölab.
3 ml platelet concentrate was centrifuged at 3000 RPM to get PPP. 1800 μl PPP and 600 μl PRP were mixed.
225 μl PRP was brought in test tube with magnetic stirrer. 225 μl PPP+25 μl aquadest was brought in test tube without magnetic stirrer. PPP was used for basis. PRP was put during 2 min at 37° C. on a roller. Measurement with PRP in aggregometer was started after 30 seconds with 25 μl inductor. Measurement was performed during 6 min.

## Cc1c(C)c2c(c(C)c1O)CCC(C)(C(=O)N1CCN(CC(=O)O)CC1)O2 (racemic) [SUL - 136, 2-(4-(6-hydroxy-2,5,7,8-tetramethylchroman-2-carbonyl)piperazin-1-yl)acetic acid]
PRP platelets; 10 mM
  activity after stimulation with ADP: still showed activity
PRP platelets; 10 min 0.001 mM, 0 h
  aggregation of the platelets after stimulation with ADP: +
PRP platelets; 10 min 0.001 mM, 24 h
  aggregation of the platelets after stimulation with ADP: −
PRP platelets; 10 min 0.001 mM, 48 h
  aggregation of the platelets after stimulation with ADP: −
PRP platelets; 10 min 0.001 mM, 72 h
  aggregation of the platelets after stimulation with ADP: −
PRP platelets; 10 min 0.001 mM, 216 h
  aggregation of the platelets after stimulation with ADP: −
PRP platelets; 10 min 0.01 mM, 0 h
  aggregation of the platelets after stimulation with ADP: +
PRP platelets; 10 min 0.01 mM, 24 h
  aggregation of the platelets after stimulation with ADP: −
PRP platelets; 10 min 0.01 mM, 48 h
  aggregation of the platelets after stimulation with ADP: −
PRP platelets; 10 min 0.01 mM, 72 h
  aggregation of the platelets after stimulation with ADP: −
PRP platelets; 10 min 0.01 mM, 216 h
  aggregation of the platelets after stimulation with ADP: −
PRP platelets; 10 min 0.1 mM, 0 h
  aggregation of the platelets after stimulation with ADP: +
PRP platelets; 10 min 0.1 mM, 24 h
  aggregation of the platelets after stimulation with ADP: −
PRP platelets; 10 min 0.1 mM, 48 h
  aggregation of the platelets after stimulation with ADP: −
PRP platelets; 10 min 0.1 mM, 72 h
  aggregation of the platelets after stimulation with ADP: −
PRP platelets; 10 min 0.1 mM, 216 h
  aggregation of the platelets after stimulation with ADP: −
PRP platelets; 10 min 1 mM, 0 h
  aggregation of the platelets after stimulation with ADP: +
PRP platelets; 10 min 1 mM, 24 h
  aggregation of the platelets after stimulation with ADP: −
PRP platelets; 10 min 1 mM, 48 h
  aggregation of the platelets after stimulation with ADP: −
PRP platelets; 10 min 1 mM, 72 h
  aggregation of the platelets after stimulation with ADP: −
PRP platelets; 10 min 1 mM, 216 h
  aggregation of the platelets after stimulation with ADP: −
PRP platelets; 10 min 10 mM, 0 h
  aggregation of the platelets after stimulation with ADP: +
PRP platelets; 10 min 10 mM, 24 h
  aggregation of the platelets after stimulation with ADP: +
PRP platelets; 10 min 10 mM, 48 h
  aggregation of the platelets after stimulation with ADP: +
PRP platelets; 10 min 10 mM, 72 h
  aggregation of the platelets after stimulation with ADP: +
PRP platelets; 10 min 10 mM, 216 h
  aggregation of the platelets after stimulation with ADP: +
PRP platelets; 60 min 0.001 mM, 0 h
  aggregation of the platelets after stimulation with ADP: +
PRP platelets; 60 min 0.001 mM, 24 h
  aggregation of the platelets after stimulation with ADP: −
PRP platelets; 60 min 0.001 mM, 48 h
  aggregation of the platelets after stimulation with ADP: −
PRP platelets; 60 min 0.001 mM, 72 h
  aggregation of the platelets after stimulation with ADP: −
PRP platelets; 60 min 0.001 mM, 216 h
  aggregation of the platelets after stimulation with ADP: −
PRP platelets; 60 min 0.01 mM, 0 h
  aggregation of the platelets after stimulation with ADP: +
PRP platelets; 60 min 0.01 mM, 24 h
  aggregation of the platelets after stimulation with ADP: −
PRP platelets; 60 min 0.01 mM, 48 h
  aggregation of the platelets after stimulation with ADP: −
PRP platelets; 60 min 0.01 mM, 72 h
  aggregation of the platelets after stimulation with ADP: −
PRP platelets; 60 min 0.01 mM, 216 h
  aggregation of the platelets after stimulation with ADP: −
PRP platelets; 60 min 0.1 mM, 0 h
  aggregation of the platelets after stimulation with ADP: +
PRP platelets; 60 min 0.1 mM, 24 h
  aggregation of the platelets after stimulation with ADP: −
PRP platelets; 60 min 0.1 mM, 48 h
  aggregation of the platelets after stimulation with ADP: −
PRP platelets; 60 min 0.1 mM, 72 h
  aggregation of the platelets after stimulation with ADP: −
PRP platelets; 60 min 0.1 mM, 216 h
  aggregation of the platelets after stimulation with ADP: −
PRP platelets; 60 min 1 mM, 0 h
  aggregation of the platelets after stimulation with ADP: +
PRP platelets; 60 min 1 mM, 24 h
  aggregation of the platelets after stimulation with ADP: −
PRP platelets; 60 min 1 mM, 48 h
  aggregation of the platelets after stimulation with ADP: −
PRP platelets; 60 min 1 mM, 72 h
  aggregation of the platelets after stimulation with ADP: −
PRP platelets; 60 min 1 mM, 216 h
  aggregation of the platelets after stimulation with ADP: −
PRP platelets; 60 min 10 mM, 0 h
  aggregation of the platelets after stimulation with ADP: +
PRP platelets; 60 min 10 mM, 24 h
  aggregation of the platelets after stimulation with ADP: +
PRP platelets; 60 min 10 mM, 48 h
  aggregation of the platelets after stimulation with ADP: +
PRP platelets; 60 min 10 mM, 72 h
  aggregation of the platelets after stimulation with ADP: +
PRP platelets; 60 min 10 mM, 216 h
  aggregation of the platelets after stimulation with ADP: −
Apherese blood platelets; Donor 2, Day 1
  Platelet aggregation ADP (%): 0%
  Platelet aggregation Collagen (%): 0%
Apherese blood platelets; Donor 2, Day 2
  Platelet aggregation ADP (%): 0%
  Platelet aggregation Collagen (%): 0%
Apherese blood platelets; Donor 2, Day 3
  Platelet aggregation ADP (%): 0%
  Platelet aggregation Collagen (%): 4%
Apherese blood platelets; Donor 2, Day 5
  Platelet aggregation ADP (%): 0%
  Platelet aggregation Collagen (%): 0%
Apherese blood platelets; Donor 2, Day 8
  Platelet aggregation ADP (%): 0%
  Platelet aggregation Collagen (%): 0%
Apherese blood platelets; Donor 2, Day 10
  Platelet aggregation ADP (%): 0%
  Platelet aggregation Collagen (%): 0%
Apherese blood platelets; Donor 2, Day 12
  Platelet aggregation ADP (%): 0%
  Platelet aggregation Collagen (%): 5%
Apherese blood platelets; Donor 2, Day 19
  Platelet aggregation ADP (%): 0%
  Platelet aggregation Collagen (%): 0%
Apherese blood platelets; Donor 3, Day 1
  Platelet aggregation ADP (%): 0%
  Platelet aggregation Collagen (%): 0%
Apherese blood platelets; Donor 3, Day 2
  Platelet aggregation ADP (%): 0%
  Platelet aggregation Collagen (%): 0%
Apherese blood platelets; Donor 3, Day 3
  Platelet aggregation ADP (%): 0%
  Platelet aggregation Collagen (%): 0%
Apherese blood platelets; Donor 3, Day 5
  Platelet aggregation ADP (%): 6%
  Platelet aggregation Collagen (%): 0%
Apherese blood platelets; Donor 3, Day 8
  Platelet aggregation ADP (%): 0%
  Platelet aggregation Collagen (%): 0%
Apherese blood platelets; Donor 3, Day 10
  Platelet aggregation ADP (%): 0%
  Platelet aggregation Collagen (%): 0%
Apherese blood platelets; Donor 3, Day 12
  Platelet aggregation ADP (%): 0%
  Platelet aggregation Collagen (%): 8%
Apherese blood platelets; Donor 3, Day 19
  Platelet aggregation ADP (%): 0%
  Platelet aggregation Collagen (%): 0%
Apherese blood platelets; donor 1, day 12 and day 19, stored at 4° C.
  platelet aggregation upon stimulation with collagen and ADP: restored
Apherese blood platelets; donor 1, Day 1
  Platelet aggregation ADP (%): 0%
  Platelet aggregation Collagen (%): 0%
Apherese blood platelets; donor 1, Day 2
  Platelet aggregation ADP (%): 0%
  Platelet aggregation Collagen (%): 0%
Apherese blood platelets; donor 1, Day 3
  Platelet aggregation ADP (%): 0%
  Platelet aggregation Collagen (%): 0%
Apherese blood platelets; donor 1, Day 5
  Platelet aggregation ADP (%): 0%
  Platelet aggregation Collagen (%): 0%
Apherese blood platelets; donor 1, Day 8
  Platelet aggregation ADP (%): 0%
  Platelet aggregation Collagen (%): 0%
Apherese blood platelets; donor 1, Day 10
  Platelet aggregation ADP (%): 0%
  Platelet aggregation Collagen (%): 0%
Apherese blood platelets; donor 1, Day 12
  Platelet aggregation ADP (%): 12%
  Platelet aggregation Collagen (%): 17%
Apherese blood platelets; donor 1, Day 19
  Platelet aggregation ADP (%): 31%
  Platelet aggregation Collagen (%): 32%
